Data reported in ChEMBL document CHEMBL1143234, “Uncovering false positives on a virtual screening search for cruzain inhibitors” (Bioorg Med Chem Lett, 2008).
Calls of active or inactive are those of the source. The calls are words filed in the database; no cut-off is given here.

Key:
[1] = biological target: Cruzipain (Trypanosoma cruzi) (UniProt P25779); assay: Inhibition of Trypanosoma cruzi cruzain upto 38.71 mM
[2] = biological target: Cruzipain (Trypanosoma cruzi) (UniProt P25779); assay: Inhibition of Trypanosoma cruzi cruzain
[3] = biological target: Cruzipain (Trypanosoma cruzi) (UniProt P25779); assay: Inhibition of Trypanosoma cruzi cruzain upto 0.67 mM
[4] = biological target: Cruzipain (Trypanosoma cruzi) (UniProt P25779); assay: Inhibition of Trypanosoma cruzi cruzain upto 7.22 mM

Sequence of Cruzipain (Trypanosoma cruzi) (P25779 123-467 limits assumed): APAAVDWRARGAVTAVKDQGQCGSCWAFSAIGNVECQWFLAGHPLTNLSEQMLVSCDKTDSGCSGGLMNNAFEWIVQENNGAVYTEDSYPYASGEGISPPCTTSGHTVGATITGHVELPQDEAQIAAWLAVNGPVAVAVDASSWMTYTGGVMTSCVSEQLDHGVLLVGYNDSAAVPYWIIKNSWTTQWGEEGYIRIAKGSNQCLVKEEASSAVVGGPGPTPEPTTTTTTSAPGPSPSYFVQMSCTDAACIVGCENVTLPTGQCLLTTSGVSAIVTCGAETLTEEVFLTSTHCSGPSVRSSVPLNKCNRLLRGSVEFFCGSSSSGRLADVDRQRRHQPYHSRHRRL

Activity [2] [µM] | Structure (SMILES) | further results
 | N#Cc1ccsc1NC(=O)/C=C/c1cccc(Cl)c1 | Activity [1]: inactive
17.3 | N#Cc1ccccc1NC(=O)C(=O)Nc1ccccc1C#N | 
44.9 | O=C(/C=C/c1cccs1)NC(Cc1ccccc1)c1nc2ccccc2[nH]1 (stereo unspecified) | 
 | O=C(NC(Cc1c[nH]c2ccccc12)C(=O)N/N=C1\CCCN1)c1cccs1 (stereo unspecified) | Activity [3]: inactive
 | N#CC1(NC(=O)c2cc3ccccc3oc2=O)CCCCC1 | Activity [4]: inactive
4.17 | N#Cc1c(NC(=O)CC(NC(=O)c2ccccc2Cl)c2ccccc2)sc2c1CCCC2 (stereo unspecified) | 
